Assay results reported in PubChem BioAssay (NCI).
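96-well plates; 48 h exposure; 5 concentrations. Endpoints by linear interpolation between flanking doses. Not reached: highest tested concentration assigned. TGI: total growth inhibition.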

Columns and labels:
Experiment in all cases: inhibition of tumour cell growth, NCI panel, 48 h
[1] = tested on: LXFL 529 NSCLC
[2] = tested on: SK-MEL-28 melanoma
[3] = tested on: SNB-75 CNS
[4] = tested on: UACC-62 melanoma
[5] = tested on: NCI-H522 lung
[6] = tested on: CCRF-CEM leukemia
[7] = tested on: DMS 273 small cell lung
[8] = tested on: HOP-92 NSCLC
[9] = tested on: LOX IMVI melanoma
[10] = tested on: NCI-H460 lung
[11] = tested on: SR leukemia
[12] = tested on: SF-295 CNS
[13] = tested on: XF 498 CNS
[14] = tested on: OVCAR-3 ovarian
[15] = tested on: MOLT-4 leukemia
[16] = tested on: KM12 colon
[17] = tested on: SK-MEL-2 melanoma
[18] = tested on: A498 renal
[19] = tested on: HT29 colon
[20] = tested on: U251 CNS
[21] = tested on: 786-0 renal
[22] = tested on: NCI-H226 lung
[23] = tested on: ACHN renal
[24] = tested on: RXF-631 renal
[25] = tested on: SNB-19 CNS
[26] = tested on: SF-539 CNS
[27] = tested on: HL-60(TB) leukemia
[28] = tested on: K-562 leukemia
[29] = tested on: SN12C renal
[30] = tested on: EKVX NSCLC
[31] = tested on: SK-OV-3 ovarian
[32] = tested on: IGROV1 ovarian
[33] = tested on: RXF 393 renal
[34] = tested on: HCT-116 colon
[35] = tested on: OVCAR-5 ovarian
[36] = tested on: COLO 205 colon
[37] = tested on: HCT-15 colon
[38] = tested on: KM20L2 colon
[39] = tested on: HOP-62 NSCLC
[40] = tested on: DMS 114 small cell lung
[41] = tested on: M14 melanoma
[42] = tested on: DLD-1 colon
[43] = tested on: M19-MEL melanoma
[44] = tested on: UO-31 renal
[45] = tested on: UACC-257 melanoma
[46] = tested on: SF-268 CNS
[47] = tested on: NCI-H23 lung
[48] = tested on: OVCAR-8 ovarian
[49] = tested on: MALME-3M melanoma
[50] = tested on: HOP-18 NSCLC
[51] = tested on: RPMI-8226 leukemia
[52] = tested on: SK-MEL-5 melanoma
[53] = tested on: HCC-2998 colon
[54] = tested on: CAKI-1 renal
[55] = tested on: OVCAR-4 ovarian
[56] = tested on: TK-10 renal
[57] = tested on: A549 NSCLC
[58] = tested on: SW-620 colon
[59] = tested on: SNB-78 CNS

COC(=O)C(=O)C(C(=O)OC)C(=O)C(=O)Nc1cc(Cl)c(Cl)cc1Cl (stereo not given)
TGI [1]: > 100 µM | TGI [2]: > 100 µM | TGI [3]: > 100 µM | TGI [4]: > 100 µM | TGI [5]: > 100 µM | TGI [6]: > 100 µM | TGI [7]: > 100 µM | TGI [8]: > 100 µM | TGI [9]: > 100 µM | TGI [10]: > 100 µM | TGI [11]: 56.7 µM | TGI [12]: > 100 µM | TGI [13]: > 100 µM | TGI [14]: > 100 µM | TGI [15]: > 100 µM | TGI [16]: > 100 µM | TGI [17]: > 100 µM | TGI [18]: > 100 µM | TGI [19]: > 100 µM | TGI [20]: > 100 µM | TGI [21]: > 100 µM | TGI [22]: > 100 µM | TGI [23]: > 100 µM | TGI [24]: > 100 µM | TGI [25]: > 100 µM | TGI [26]: > 100 µM | TGI [27]: > 100 µM | TGI [28]: > 100 µM | TGI [29]: > 100 µM | TGI [30]: > 100 µM | TGI [31]: > 100 µM | TGI [32]: > 100 µM | TGI [33]: > 100 µM | TGI [34]: 75.8 µM | TGI [35]: > 100 µM | TGI [36]: > 100 µM | TGI [37]: > 100 µM | TGI [38]: > 100 µM | TGI [39]: > 100 µM | TGI [40]: 30.8 µM | TGI [41]: > 100 µM | TGI [42]: > 100 µM | TGI [43]: > 100 µM | TGI [44]: > 100 µM | TGI [45]: > 100 µM | TGI [46]: > 100 µM | TGI [47]: > 100 µM | TGI [48]: > 100 µM | TGI [49]: > 100 µM | TGI [50]: > 100 µM | TGI [51]: 60.3 µM | TGI [52]: > 100 µM | TGI [53]: > 100 µM | TGI [54]: > 100 µM | TGI [55]: > 100 µM | TGI [56]: > 100 µM | TGI [57]: > 100 µM

Cn1nc2ccccc2cc1=O
TGI [2]: > 100 µM | TGI [3]: > 100 µM | TGI [4]: > 100 µM | TGI [6]: > 100 µM | TGI [7]: > 100 µM | TGI [8]: > 100 µM | TGI [9]: > 100 µM | TGI [10]: > 100 µM | TGI [12]: > 100 µM | TGI [13]: > 100 µM | TGI [14]: > 100 µM | TGI [16]: > 100 µM | TGI [17]: > 100 µM | TGI [18]: > 100 µM | TGI [19]: > 100 µM | TGI [20]: > 100 µM | TGI [21]: > 100 µM | TGI [22]: > 100 µM | TGI [23]: > 100 µM | TGI [24]: > 100 µM | TGI [25]: > 100 µM | TGI [26]: > 100 µM | TGI [28]: > 100 µM | TGI [29]: > 100 µM | TGI [30]: > 100 µM | TGI [31]: > 100 µM | TGI [32]: > 100 µM | TGI [34]: > 100 µM | TGI [35]: > 100 µM | TGI [36]: > 100 µM | TGI [37]: > 100 µM | TGI [38]: > 100 µM | TGI [39]: > 100 µM | TGI [40]: > 100 µM | TGI [41]: > 100 µM | TGI [58]: > 100 µM | TGI [42]: > 100 µM | TGI [43]: > 100 µM | TGI [44]: > 100 µM | TGI [45]: > 100 µM | TGI [46]: > 100 µM | TGI [47]: > 100 µM | TGI [48]: > 100 µM | TGI [49]: > 100 µM | TGI [50]: > 100 µM | TGI [51]: > 100 µM | TGI [59]: > 100 µM | TGI [52]: > 100 µM | TGI [53]: > 100 µM | TGI [54]: > 100 µM | TGI [55]: > 100 µM | TGI [56]: > 100 µM | TGI [57]: > 100 µM
